Measured values as given in ChEMBL document CHEMBL1201862, “PubChem BioAssay data set” (2004).
Where a name gives a salt, the structure may show the parent alone. The source made the active and inactive calls.

Legend:
Cytochrome P450 3A4 = Cytochrome P450 3A4 (Homo sapiens, UniProt P08684);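 also: CYP3A4 tested as one member of a cytochrome P450 panel screen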
[1] = target: Peroxisome proliferator-activated receptor gamma/Nuclear receptor coactivator 2 (Homo sapiens, UniProt P37231); experiment: (§1) TR-FRET dose response biochemical High Throughput Screening assay for agonists of the steroid receptor coactivator 2 (SRC-2) recruitment by the peroxisome proliferator-activated receptor gamma (PPAR gamma): non-selective agonists. [Related pubchem assays: 1297, 1032 ]; format: functional
Cytochrome P450 2C19 = Cytochrome P450 2C19 (Homo sapiens, UniProt P33261); experiment: Cytochrome panel assay with activity outcomes. Panel member name: p450-cyp2c19 Compounds with AC50 equal or less than 10 uM are considered active; format: functional; settings: read-out: AC50
Sequence of Cytochrome P450 2C19 (P33261 whole entry): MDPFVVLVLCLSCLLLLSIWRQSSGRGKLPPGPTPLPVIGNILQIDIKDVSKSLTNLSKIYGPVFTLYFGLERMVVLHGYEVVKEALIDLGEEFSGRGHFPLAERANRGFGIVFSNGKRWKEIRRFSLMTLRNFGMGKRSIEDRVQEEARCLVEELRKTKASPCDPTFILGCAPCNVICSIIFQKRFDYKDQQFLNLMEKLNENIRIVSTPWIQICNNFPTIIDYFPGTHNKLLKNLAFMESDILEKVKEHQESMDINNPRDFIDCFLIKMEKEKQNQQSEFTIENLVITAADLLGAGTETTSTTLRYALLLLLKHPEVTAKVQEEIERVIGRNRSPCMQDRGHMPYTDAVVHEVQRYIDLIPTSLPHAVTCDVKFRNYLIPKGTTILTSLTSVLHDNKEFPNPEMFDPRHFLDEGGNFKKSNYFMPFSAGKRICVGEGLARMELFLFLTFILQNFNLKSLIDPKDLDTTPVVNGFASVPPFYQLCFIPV

[2] = C. albicans growth with fluconazole, confirmation, fluorescence, retest (AID 2467); format: functional, cell-based
[3] = target: Peroxisome proliferator-activated receptor gamma/Nuclear receptor corepressor 2 (Homo sapiens, UniProt P37231+Q9Y618); format: functional
[4] = target: Peroxisome proliferator-activated receptor gamma/Nuclear receptor coactivator 3 (Homo sapiens, UniProt P37231); experiment: as §1, with “3 (SRC-3)” for “2 (SRC-2)”, “1301 (Confirmation screen.), 1048 (Primary screen.)]” for “1297, 1032 ]”; format: functional
[5] = target: Peroxisome proliferator-activated receptor gamma/Nuclear receptor coactivator 1 (Homo sapiens, UniProt P37231); experiment: as §1, with “1 (SRC-1)” for “2 (SRC-2)”, “assays (depositor defined):AID1300, AID1808, AID504735, AID631]” for “assays: 1297, 1032 ]”; format: protein assay
[6] = target: ATP-dependent molecular chaperone HSP82 (Candida albicans (strain WO-1) (Yeast), UniProt C4YTQ8); experiment: loss of DOC-induced GRE-beta-galactosidase reporter signal, dose response, Hsp90 inhibitor project, S. cerevisiae, luminescence (AID 2400); format: functional, cell-based;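 also: beta-galactosidase luminescence from glucocorticoid response element reporter as proxy for Hsp90 function; inhibitor potency where signal loss means Hsp90 inhibition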
Sequence of ATP-dependent molecular chaperone HSP82 (C4YTQ8 whole entry): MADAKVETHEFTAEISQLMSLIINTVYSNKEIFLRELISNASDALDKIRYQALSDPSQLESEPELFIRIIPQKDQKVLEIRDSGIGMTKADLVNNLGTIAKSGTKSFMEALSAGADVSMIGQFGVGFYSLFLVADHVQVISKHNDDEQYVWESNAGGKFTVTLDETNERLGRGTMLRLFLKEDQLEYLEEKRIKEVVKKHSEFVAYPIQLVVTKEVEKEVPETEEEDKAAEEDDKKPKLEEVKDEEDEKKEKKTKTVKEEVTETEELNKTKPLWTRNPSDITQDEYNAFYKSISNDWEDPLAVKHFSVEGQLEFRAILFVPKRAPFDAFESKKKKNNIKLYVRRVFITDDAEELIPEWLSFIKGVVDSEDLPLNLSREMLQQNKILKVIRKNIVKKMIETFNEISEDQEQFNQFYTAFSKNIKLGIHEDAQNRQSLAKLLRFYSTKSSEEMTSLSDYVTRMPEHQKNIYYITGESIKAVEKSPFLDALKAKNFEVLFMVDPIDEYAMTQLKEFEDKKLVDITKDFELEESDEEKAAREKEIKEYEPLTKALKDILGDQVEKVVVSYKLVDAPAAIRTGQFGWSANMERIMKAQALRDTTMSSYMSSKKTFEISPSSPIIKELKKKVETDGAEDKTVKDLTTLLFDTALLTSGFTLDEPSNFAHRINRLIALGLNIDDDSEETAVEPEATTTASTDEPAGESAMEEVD

[7] = target: Photoreceptor-specific nuclear receptor (Homo sapiens, UniProt Q9Y5X4); format: functional;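 also: potency for compounds that break the NR2E3 corepressor complex and count as activators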
[8] = NIH-3T3 fibroblast cytotoxicity, dose response, cytotoxicity control, cell-based, fluorescence, Alamar Blue, secondary assay (AID 2327); format: functional;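 also: NIH-3T3 mouse fibroblasts cultured with fluconazole at 8 µg/mL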
[9] = target: Serine/threonine-protein phosphatase (Candida dubliniensis (strain CD36 / CBS 7987 / NCPF 3949 / NRRLY-17841) (Yeast), UniProt B9W6M3); experiment: calcineurin pathway inhibitors in yeast reporter, dose response, S. cerevisiae, CDRE-lacZ, luminescence, secondary (AID 2388); format: functional, cell-based;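 also: yeast reporter cells carrying a calcineurin-responsive lacZ construct stimulated with calcium chloride; luminescent beta-galactosidase reporter signal in whole cells rather than isolated phosphatase activity; potency for inhibition where a drop in reporter signal means calcineurin blockade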
fMet-Leu-Phe receptor = fMet-Leu-Phe receptor (Homo sapiens, UniProt P21462); experiment: FPR ligands, dose response (AID 519); format: functional
Sequence of fMet-Leu-Phe receptor (P21462 whole entry): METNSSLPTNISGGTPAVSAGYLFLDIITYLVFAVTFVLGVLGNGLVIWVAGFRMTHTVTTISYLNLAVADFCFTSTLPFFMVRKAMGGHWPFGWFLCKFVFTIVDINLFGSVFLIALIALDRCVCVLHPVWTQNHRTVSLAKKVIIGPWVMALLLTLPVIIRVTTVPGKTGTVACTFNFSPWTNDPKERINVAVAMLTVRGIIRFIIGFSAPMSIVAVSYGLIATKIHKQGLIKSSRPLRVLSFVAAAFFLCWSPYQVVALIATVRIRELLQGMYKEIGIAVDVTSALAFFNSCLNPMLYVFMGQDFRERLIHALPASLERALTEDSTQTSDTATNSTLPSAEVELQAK

Vero = Vero cell cytotoxicity, cytotoxicity control for flavivirus capping enzyme inhibitors (AID 588742); format: functional; settings: Chlorocebus sabaeus
Protein Rev = Protein Rev (Human immunodeficiency virus type 1 group M subtype B (isolate HXB2)(HIV-1), UniProt P04618); experiment: inhibitors of Rev binding to RRE RNA, dose response, biochemical, fluorescence polarization, HIV-1 (AID 434976); design: species or system Human immunodeficiency virus 1
Sequence of Protein Rev (P04618 whole entry): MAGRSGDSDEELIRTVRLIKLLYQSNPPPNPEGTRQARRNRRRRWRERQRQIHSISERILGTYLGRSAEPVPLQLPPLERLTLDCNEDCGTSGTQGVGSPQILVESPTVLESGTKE

Genome polyprotein = Genome polyprotein (dengue virus type 2, UniProt P29990); experiment: Dengue-2 NS5 methyltransferase inhibitors, primary screen, biochemical, confirmation dose response (AID 588689); format: functional
Sequence of Genome polyprotein (P29990 2492-3391 limits assumed): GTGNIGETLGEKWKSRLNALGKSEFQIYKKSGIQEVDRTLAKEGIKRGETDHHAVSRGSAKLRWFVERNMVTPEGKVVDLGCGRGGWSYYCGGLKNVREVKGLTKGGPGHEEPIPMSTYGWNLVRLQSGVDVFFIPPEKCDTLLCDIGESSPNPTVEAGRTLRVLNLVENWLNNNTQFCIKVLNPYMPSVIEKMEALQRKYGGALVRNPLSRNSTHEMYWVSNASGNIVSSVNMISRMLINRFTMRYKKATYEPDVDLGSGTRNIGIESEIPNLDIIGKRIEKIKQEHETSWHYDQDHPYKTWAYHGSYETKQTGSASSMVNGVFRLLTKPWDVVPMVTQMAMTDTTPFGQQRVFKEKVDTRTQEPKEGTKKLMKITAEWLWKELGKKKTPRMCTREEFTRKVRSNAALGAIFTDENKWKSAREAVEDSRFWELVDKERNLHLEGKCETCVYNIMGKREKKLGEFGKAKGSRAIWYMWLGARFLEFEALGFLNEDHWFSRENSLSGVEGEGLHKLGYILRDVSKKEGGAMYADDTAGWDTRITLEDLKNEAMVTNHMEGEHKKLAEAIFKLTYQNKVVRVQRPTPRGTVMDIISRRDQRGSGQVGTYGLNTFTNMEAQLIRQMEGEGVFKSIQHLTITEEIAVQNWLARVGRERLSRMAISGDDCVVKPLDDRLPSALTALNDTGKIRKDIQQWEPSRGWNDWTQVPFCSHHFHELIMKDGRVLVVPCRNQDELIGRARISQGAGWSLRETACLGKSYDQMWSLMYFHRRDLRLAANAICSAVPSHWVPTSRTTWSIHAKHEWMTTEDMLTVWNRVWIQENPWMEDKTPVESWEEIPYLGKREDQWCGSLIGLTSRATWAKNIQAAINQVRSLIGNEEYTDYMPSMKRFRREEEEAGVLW

[10] = target: Female germline-specific tumor suppressor gld-1 (Caenorhabditis elegans, UniProt Q17339); experiment: inhibitors of GLD-1 binding to TGE RNA, dose response, biochemical, fluorescence polarization, C. elegans (AID 2802);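 also: fluorescence polarization of labeled TGE RNA bound by purified gld-1 protein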
Sequence of Female germline-specific tumor suppressor gld-1 (Q17339 whole entry): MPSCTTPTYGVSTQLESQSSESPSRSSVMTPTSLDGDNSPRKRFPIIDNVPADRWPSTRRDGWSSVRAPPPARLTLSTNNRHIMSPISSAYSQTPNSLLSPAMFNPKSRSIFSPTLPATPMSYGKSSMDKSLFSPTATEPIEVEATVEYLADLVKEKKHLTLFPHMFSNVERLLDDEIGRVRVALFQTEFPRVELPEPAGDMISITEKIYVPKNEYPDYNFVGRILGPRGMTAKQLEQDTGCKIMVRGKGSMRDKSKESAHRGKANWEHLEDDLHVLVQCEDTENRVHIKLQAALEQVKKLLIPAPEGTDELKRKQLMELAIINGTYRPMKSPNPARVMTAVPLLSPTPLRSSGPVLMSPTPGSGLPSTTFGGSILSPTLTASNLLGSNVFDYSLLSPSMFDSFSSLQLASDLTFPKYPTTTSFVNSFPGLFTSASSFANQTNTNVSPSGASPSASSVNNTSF

[11] = target: Dual specificity tyrosine-phosphorylation-regulated kinase 1A (Rattus norvegicus, UniProt Q63470); format: biochemical, Homo sapiens
HEK293 = experiment: cells; format: functional, cell-based; settings: Homo sapiens
[12] = target: T1, Nuclear receptor subfamily 0 group B member 1 (Homo sapiens, UniProt P51843); experiment: Luminescence-based cell-based high throughput dose response assay for inhibitors of the orphan nuclear receptor subfamily 0, group B, member 1 (DAX1; NR0B1). [Related pubchem assays (depositor defined):AID504766, AID504790]; format: functional
T1 sequence (P51843 whole entry): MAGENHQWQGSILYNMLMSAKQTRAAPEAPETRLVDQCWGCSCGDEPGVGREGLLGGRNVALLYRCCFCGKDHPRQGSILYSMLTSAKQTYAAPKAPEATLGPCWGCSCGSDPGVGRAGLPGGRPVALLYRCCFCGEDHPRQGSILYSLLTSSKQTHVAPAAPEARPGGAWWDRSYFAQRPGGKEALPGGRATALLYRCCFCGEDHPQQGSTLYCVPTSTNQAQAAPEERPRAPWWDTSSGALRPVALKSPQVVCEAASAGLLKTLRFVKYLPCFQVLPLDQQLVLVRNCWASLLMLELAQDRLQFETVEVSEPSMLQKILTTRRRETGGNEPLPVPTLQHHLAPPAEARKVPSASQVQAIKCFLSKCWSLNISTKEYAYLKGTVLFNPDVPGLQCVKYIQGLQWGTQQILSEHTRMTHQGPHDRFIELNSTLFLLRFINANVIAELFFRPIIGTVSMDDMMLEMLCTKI

[13] = target: Beta-2 adrenergic receptor (Homo sapiens, UniProt P07550); experiment: beta2AR agonists driving receptor internalization, dose response, cell-based, FAP fluorogen, flow cytometry, cherry pick 1 (AID 588763); format: functional
Candida albicans [14] = experiment: fluconazole resistance reversal in C. albicans, dose response, CaCi-2 strain, Alamar Blue, dry powder, set 4 (AID 488943); format: functional, organism-based
Candida albicans [15] = experiment: growth inhibition of azole-resistant C. albicans, dose response, CaCi-8 strain, Alamar Blue, dry powder, set 2 (AID 488909); format: functional, organism-based
Candida albicans [16] = experiment: growth inhibition of resistant C. albicans, dose response, CaCi-8 strain, fluconazole, dry powder, set 4 (AID 488950); format: functional, organism-based
Candida albicans [17] = experiment: C. albicans growth inhibition with fluconazole, dose response, antifungal resistance reversal project, CaCi-2 strain, Alamar Blue, dry powder, set 2 (AID 488930); format: functional, organism-based
Phospholipase D2 = Phospholipase D2 (Homo sapiens, UniProt O14939); experiment: PLD2 inhibitor potency in cells, dose response (AID 602147); format: functional;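 also: cellular assay in HEK293 cells overexpressing GFP-tagged PLD2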
Sequence of Phospholipase D2 (O14939 whole entry): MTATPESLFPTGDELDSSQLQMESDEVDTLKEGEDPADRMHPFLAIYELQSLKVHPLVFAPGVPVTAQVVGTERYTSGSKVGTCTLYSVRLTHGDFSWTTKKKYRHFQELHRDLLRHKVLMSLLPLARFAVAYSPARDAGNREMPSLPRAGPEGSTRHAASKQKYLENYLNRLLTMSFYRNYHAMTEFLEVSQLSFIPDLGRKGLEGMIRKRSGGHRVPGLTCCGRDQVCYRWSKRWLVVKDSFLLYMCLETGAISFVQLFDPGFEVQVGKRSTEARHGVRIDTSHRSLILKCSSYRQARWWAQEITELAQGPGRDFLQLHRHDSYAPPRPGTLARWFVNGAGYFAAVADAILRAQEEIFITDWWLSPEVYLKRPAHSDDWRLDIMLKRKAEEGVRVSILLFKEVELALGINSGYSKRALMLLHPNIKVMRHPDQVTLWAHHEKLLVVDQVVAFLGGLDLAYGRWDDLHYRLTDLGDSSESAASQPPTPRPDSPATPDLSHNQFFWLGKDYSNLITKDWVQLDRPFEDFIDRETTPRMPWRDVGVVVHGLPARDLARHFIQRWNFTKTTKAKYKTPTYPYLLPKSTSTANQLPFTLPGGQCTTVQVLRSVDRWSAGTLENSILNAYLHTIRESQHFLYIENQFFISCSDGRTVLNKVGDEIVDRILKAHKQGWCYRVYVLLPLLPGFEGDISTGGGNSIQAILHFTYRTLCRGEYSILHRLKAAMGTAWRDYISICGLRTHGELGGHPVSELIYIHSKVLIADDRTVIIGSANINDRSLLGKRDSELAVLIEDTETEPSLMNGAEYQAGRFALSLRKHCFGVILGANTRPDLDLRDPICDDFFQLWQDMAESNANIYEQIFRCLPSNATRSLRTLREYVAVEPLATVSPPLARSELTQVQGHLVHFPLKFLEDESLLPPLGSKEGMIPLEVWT

Phospholipase D1 = target: T2, Phospholipase D1 (Homo sapiens, UniProt Q13393); experiment: PLD1 inhibitor potency in cells, dose response (AID 602151); format: functional;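 also: cellular PLD1 assay in Calu-1 cells stimulated with PMA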
T2 sequence (Q13393 whole entry): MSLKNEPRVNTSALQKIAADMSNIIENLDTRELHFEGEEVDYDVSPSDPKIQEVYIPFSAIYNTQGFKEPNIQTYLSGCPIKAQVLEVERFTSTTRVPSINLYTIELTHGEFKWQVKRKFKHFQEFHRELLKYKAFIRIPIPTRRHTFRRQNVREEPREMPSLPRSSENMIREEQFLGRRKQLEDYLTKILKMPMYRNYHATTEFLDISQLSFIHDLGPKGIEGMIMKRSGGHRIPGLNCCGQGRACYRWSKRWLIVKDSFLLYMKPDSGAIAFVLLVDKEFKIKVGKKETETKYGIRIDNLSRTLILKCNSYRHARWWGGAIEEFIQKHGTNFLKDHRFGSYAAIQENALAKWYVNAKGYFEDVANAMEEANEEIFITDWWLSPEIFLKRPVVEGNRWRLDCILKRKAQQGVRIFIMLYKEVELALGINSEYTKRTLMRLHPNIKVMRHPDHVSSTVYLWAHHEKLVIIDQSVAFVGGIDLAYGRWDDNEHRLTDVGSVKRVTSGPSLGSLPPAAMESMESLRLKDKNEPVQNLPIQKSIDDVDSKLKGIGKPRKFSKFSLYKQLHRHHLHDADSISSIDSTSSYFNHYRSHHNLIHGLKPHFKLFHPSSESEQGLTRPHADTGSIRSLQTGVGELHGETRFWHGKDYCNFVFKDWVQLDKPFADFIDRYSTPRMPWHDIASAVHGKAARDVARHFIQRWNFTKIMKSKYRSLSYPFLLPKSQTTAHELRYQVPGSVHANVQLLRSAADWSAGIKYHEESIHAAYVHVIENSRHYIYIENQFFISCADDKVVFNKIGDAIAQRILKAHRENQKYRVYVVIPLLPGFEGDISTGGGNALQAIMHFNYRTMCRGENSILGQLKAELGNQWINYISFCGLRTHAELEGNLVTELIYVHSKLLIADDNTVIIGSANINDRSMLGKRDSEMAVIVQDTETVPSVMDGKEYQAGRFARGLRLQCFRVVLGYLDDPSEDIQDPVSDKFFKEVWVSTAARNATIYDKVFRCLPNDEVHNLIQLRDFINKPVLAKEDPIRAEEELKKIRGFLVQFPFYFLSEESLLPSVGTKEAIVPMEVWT

[18] = target: Dual specificity protein kinase CLK1 (Homo sapiens, UniProt P49759); experiment: CLK1 kinase inhibitors, off-target check, dose response, selectivity assay for Dyrk1A inhibitor project, biochemical, cherry-picked samples (AID 588811)
Sequence of Dual specificity protein kinase CLK1 (P49759 whole entry): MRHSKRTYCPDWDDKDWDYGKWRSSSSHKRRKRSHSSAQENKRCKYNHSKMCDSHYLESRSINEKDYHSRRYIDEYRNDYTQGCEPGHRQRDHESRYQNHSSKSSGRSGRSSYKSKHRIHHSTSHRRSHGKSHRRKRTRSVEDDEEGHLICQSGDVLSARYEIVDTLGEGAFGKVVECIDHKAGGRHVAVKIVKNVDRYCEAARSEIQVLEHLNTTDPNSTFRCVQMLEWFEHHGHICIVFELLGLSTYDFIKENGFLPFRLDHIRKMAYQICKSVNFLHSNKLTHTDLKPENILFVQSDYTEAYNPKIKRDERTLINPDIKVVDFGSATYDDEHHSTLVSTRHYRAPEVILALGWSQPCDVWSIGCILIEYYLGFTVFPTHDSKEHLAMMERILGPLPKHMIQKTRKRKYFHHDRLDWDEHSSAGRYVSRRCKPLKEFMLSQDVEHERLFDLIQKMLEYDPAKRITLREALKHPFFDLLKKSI

[19] = microbe, parasite or virus in culture; format: functional; settings: Mycobacterium tuberculosis
[20] = target: Voltage-gated inwardly rectifying potassium channel KCNH2 (Homo sapiens, UniProt Q12809); settings: Potency;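 also: confirmatory quantitative high-throughput screen measuring inhibition of hERG channel activity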

Sequence of Cytochrome P450 3A4 (P08684 whole entry): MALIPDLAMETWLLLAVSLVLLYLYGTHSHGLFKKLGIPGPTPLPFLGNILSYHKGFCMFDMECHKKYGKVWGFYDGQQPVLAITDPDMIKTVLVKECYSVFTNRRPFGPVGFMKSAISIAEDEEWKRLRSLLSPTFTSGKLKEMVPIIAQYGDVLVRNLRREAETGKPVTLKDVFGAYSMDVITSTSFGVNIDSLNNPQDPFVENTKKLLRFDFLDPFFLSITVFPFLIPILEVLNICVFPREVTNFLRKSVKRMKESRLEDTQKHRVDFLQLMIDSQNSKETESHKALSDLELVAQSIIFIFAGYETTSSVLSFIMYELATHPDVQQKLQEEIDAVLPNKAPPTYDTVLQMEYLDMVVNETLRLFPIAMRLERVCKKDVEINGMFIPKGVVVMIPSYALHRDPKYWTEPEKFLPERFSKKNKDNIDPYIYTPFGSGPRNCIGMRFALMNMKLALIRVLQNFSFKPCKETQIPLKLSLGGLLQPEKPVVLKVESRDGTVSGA

COc1cccc(C2C(C(=O)c3cc4ccccc4o3)=C(O)C(=O)N2c2cc(C)on2)c1OC (centres undefined)
AC50 (Cytochrome P450 3A4): 28.2 µM (inconclusive)
EC50 [1]: 9.84 µM (active)
AC50 (Cytochrome P450 2C19): 15.8 µM (inconclusive)
EC50 [2]: 0.61 µM (active)
IC50 [3]: 4.97 µM (active)
EC50 [4]: > 79.4 µM (not active)
EC50 [5]: 35.9 µM (inactive)
EC50 [6]: 17.2 µM (active)
IC50 [7]: > 39.8 µM (not active)
EC50 [8]: > 150 µM (inactive)
EC50 [9]: > 180 µM (inactive)
Ki (fMet-Leu-Phe receptor): > 66.7 µM (inactive)

COc1cc(O)cc2cc3c(c(O)c12)C(=O)CC(C)(O)O3 (centres undefined)
CC50 (Vero): > 40 µM (active)
IC50 (Protein Rev): 16.2 µM (not active)
IC50 (Genome polyprotein): 38.1 µM (active)
IC50 [10]: 2.96 µM (active)
AC50 [11]: 2.92 µM (active)

Cc1ccccc1NC(=O)Nc1nc2ccc(S(C)(=O)=O)cc2s1
IC50 (HEK293): > 67.5 µM (inactive)
IC50 [12]: > 67.5 µM (inactive)

O=C(Cn1nc(-c2ccccc2)ccc1=O)Nc1ccc(NC(=O)c2ccccn2)cc1
EC50 [13]: 0.00816 µM (active)

O=C(c1ccc(Cl)cn1)N1CCN(c2ccnc3cc(Cl)ccc23)CC1
AC50 (Candida albicans [14]): 2.47 µM (active)
AC50 (Candida albicans [15]): < 0.195 µM (active)
AC50 (Candida albicans [16]): 3.17 µM (active)
AC50 (Candida albicans [17]): 0.316 µM (active)

C[C@@H](CN1CCC(n2c(=O)[nH]c3ccc(F)cc32)CC1)NC(=O)c1ccc(Cl)cc1
IC50 (Phospholipase D2): 0.434 µM (active)
IC50 (Phospholipase D1): 0.004 µM (active)

Brc1ccc(CNc2nccc(-c3ccc4c(c3)OCO4)n2)cc1Br
AC50 [18]: 0.0049 µM (active)

CN1CCN2c3ccccc3Cc3ccccc3C2C1 (centres undefined) [MIANSERIN HYDROCHLORIDE]
CC50 [19]: > 40 µM (active)
AC50 [20]: 35.5 µM (inconclusive)
